According to PubChem BioAssay AID328 (DTP/NCI, 2004):
“And” between values parts separate entries of the source, which are not always exact repeats. Equal entries are not always repeated. Inconclusive results and toxic doses are left out. Rule for the calls: active = survival T/C of 150% or more; inactive = T/C below 125% in these data.

System: BDF1 mice, P388 leukemia ip, median survival T/C
Test: NCI In Vivo Anticancer Drug Screen. Data for tumor model P388 Leukemia (intraperitoneal) in B6D2F1 (BDF1) mice
Settings: endpoint: median survival time, higher = longer survival
How it was run: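 Steps: implant the tumour, treat one group with compound and another with vehicle, record survival, then divide treated by control.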

[1] = dose: 100.0 mg/kg/injection, schedule: Q04DX003 (ip), vehicle: saline with Tween-80
[2] = dose: 50.0 mg/kg/injection, schedule: Q01DX009 (ip), vehicle: saline with Tween-80
[3] = dose: 100.0 mg/kg/injection, schedule: Q01DX009 (ip), vehicle: saline with Tween-80
[4] = dose: 50.0 mg/kg/injection, schedule: Q04DX003 (ip), vehicle: saline
[5] = dose: 100.0 mg/kg/injection, schedule: Q04DX003 (ip), vehicle: saline
[6] = dose: 200.0 mg/kg/injection, schedule: Q04DX003 (ip), vehicle: saline
[7] = dose: 200.0 mg/kg/injection, schedule: Q01DX009 (ip), vehicle: saline with Tween-80

Measured: T/C

COc1cc2cc(c1Cl)N(C)C(=O)CC(OC(=O)C(F)(F)F)C1(C)OC1C(C)C1CC(O)(NC(=O)O1)C(OC)C=C/C=C(\C)C2 (configuration not stated)
inactive: dose: 0.8 micrograms/kg/injection, schedule: Q01DX009 (ip), vehicle: saline + alcohol 110 % of control | dose: 1.5 micrograms/kg/injection, schedule: Q01DX009 (ip), vehicle: saline + alcohol 100 % of control | dose: 1.8 micrograms/kg/injection, schedule: Q01DX009 (ip), vehicle: saline + alcohol 107 % of control | dose: 3.1 micrograms/kg/injection, schedule: Q01DX009 (ip), vehicle: saline + alcohol 98 % of control and 100 % of control | dose: 6.2 micrograms/kg/injection, schedule: Q01DX009 (ip), vehicle: saline + alcohol 98 % of control and 108 % of control | dose: 12.5 micrograms/kg/injection, schedule: Q01DX009 (ip), vehicle: saline + alcohol 96 % of control and 120 % of control | dose: 25.0 micrograms/kg/injection, schedule: Q01DX009 (ip), vehicle: saline + alcohol 96 % of control | dose: 50.0 micrograms/kg/injection, schedule: Q01DX009 (ip), vehicle: saline + alcohol 107 % of control | dose: 100.0 micrograms/kg/injection, schedule: Q01DX009 (ip), vehicle: saline + alcohol 91 % of control and 108 % of control | dose: 200.0 micrograms/kg/injection, schedule: Q01DX009 (ip), vehicle: saline + alcohol 91 % of control | dose: 400.0 micrograms/kg/injection, schedule: Q01DX009 (ip), vehicle: saline + alcohol 117 % of control

CCNC(=S)N/N=C/c1ccc[nH]1
inactive: dose: 15.0 mg/kg/injection, schedule: Q01DX009 (ip), vehicle: saline with Tween-80 104 % of control | dose: 30.0 mg/kg/injection, schedule: Q01DX009 (ip), vehicle: saline with Tween-80 88 % of control | dose: 60.0 mg/kg/injection, schedule: Q01DX009 (ip), vehicle: saline with Tween-80 101 % of control

C=Cn1ccnc1C.C=Cn1ccnc1C.CC(=O)CC(C)=O.CC(=O)CC(C)=O.[Ni]
inactive: dose: 12.5 mg/kg/injection, schedule: Q04DX002 (ip), vehicle: saline 119 % of control | dose: 25.0 mg/kg/injection, schedule: Q04DX002 (ip), vehicle: saline 117 % of control | dose: 50.0 mg/kg/injection, schedule: Q04DX002 (ip), vehicle: saline 112 % of control

Cc1cc2c(cc1C)C(=O)C(N1CCN(C)CC1)CCC2 (configuration not stated)
inactive: dose: 25.0 mg/kg/injection, schedule: Q04DX003 (ip), vehicle: saline with Tween-80 100 % of control | dose: 50.0 mg/kg/injection, schedule: Q04DX003 (ip), vehicle: saline with Tween-80 104 % of control | [1] 86 % of control

OC1CCCC2CCCNC12 (configuration not stated) (tested in a mixture with another compound)
inactive: dose: 25.0 mg/kg/injection, schedule: Q01DX009 (ip), vehicle: saline with Tween-80 88 % of control | [2] 103 % of control | [3] 100 % of control

COc1ccc(-c2c3c(cc4cc5c(cc24)OCO5)C(=O)OC3)cc1OC
inactive: dose: 0.25 mg/kg/injection, schedule: Q01DX009 (ip), vehicle: saline + alcohol 95 % of control | dose: 0.5 mg/kg/injection, schedule: Q01DX009 (ip), vehicle: saline + alcohol 88 % of control | dose: 1.0 mg/kg/injection, schedule: Q01DX009 (ip), vehicle: saline + alcohol 95 % of control | dose: 1.5 mg/kg/injection, schedule: Q01DX009 (ip), vehicle: saline + alcohol 104 % of control | dose: 2.0 mg/kg/injection, schedule: Q01DX009 (ip), vehicle: saline + alcohol 88 % of control | dose: 3.0 mg/kg/injection, schedule: Q01DX009 (ip), vehicle: saline + alcohol 93 % of control | dose: 4.0 mg/kg/injection, schedule: Q01DX009 (ip), vehicle: saline + alcohol 95 % of control | dose: 6.0 mg/kg/injection, schedule: Q01DX009 (ip), vehicle: saline + alcohol 111 % of control | dose: 8.0 mg/kg/injection, schedule: Q01DX009 (ip), vehicle: saline + alcohol 104 % of control | dose: 12.0 mg/kg/injection, schedule: Q01DX009 (ip), vehicle: saline + alcohol 101 % of control | dose: 24.0 mg/kg/injection, schedule: Q01DX009 (ip), vehicle: saline + alcohol 93 % of control | dose: 25.0 mg/kg/injection, schedule: Q01DX009 (ip), vehicle: saline + alcohol 94 % of control | dose: 50.0 mg/kg/injection, schedule: Q01DX009 (ip), vehicle: saline + alcohol 94 % of control | dose: 100.0 mg/kg/injection, schedule: Q01DX009 (ip), vehicle: saline + alcohol 97 % of control | dose: 200.0 mg/kg/injection, schedule: Q01DX009 (ip), vehicle: saline + alcohol 86 % of control

OCC1(O)CC(O)C(O)(CO)CC1O (configuration not stated)
inactive: dose: 50.0 mg/kg/injection, schedule: Q01DX009 (ip), vehicle: other 104 % of control | [4] 104 % of control | dose: 100.0 mg/kg/injection, schedule: Q01DX009 (ip), vehicle: other 95 % of control | [5] 116 % of control | dose: 200.0 mg/kg/injection, schedule: Q01DX009 (ip), vehicle: other 118 % of control | [6] 95 % of control

CCCNC(=O)Nc1ccc(C(=O)OCC(C)C)cc1
inactive: [1] 104 % of control | dose: 200.0 mg/kg/injection, schedule: Q04DX003 (ip), vehicle: saline with Tween-80 100 % of control | dose: 400.0 mg/kg/injection, schedule: Q04DX003 (ip), vehicle: saline with Tween-80 100 % of control

CC1=C(C)C(=O)c2c(OC(=O)c3ccccc3)ccc(OC(=O)c3ccccc3)c2C1=O
inactive: dose: 6.25 mg/kg/injection, schedule: Q04DX003 (ip), vehicle: saline 102 % of control | dose: 12.5 mg/kg/injection, schedule: Q04DX003 (ip), vehicle: saline 103 % of control | dose: 25.0 mg/kg/injection, schedule: Q01DX009 (ip), vehicle: saline 92 % of control | dose: 25.0 mg/kg/injection, schedule: Q04DX003 (ip), vehicle: saline 94 % of control | dose: 50.0 mg/kg/injection, schedule: Q01DX009 (ip), vehicle: saline 101 % of control | [4] 99 % of control | dose: 100.0 mg/kg/injection, schedule: Q01DX009 (ip), vehicle: saline 92 % of control | [5] 94 % of control | dose: 200.0 mg/kg/injection, schedule: Q01DX009 (ip), vehicle: saline 91 % of control | dose: 400.0 mg/kg/injection, schedule: Q01DX009 (ip), vehicle: saline 89 % of control

CCCCCSC(=S)N(C)NC(=O)c1ccccn1
inactive: [2] 103 % of control | [3] 101 % of control | [7] 100 % of control

COc1ccc(N2CCN(c3ccc([N+](=O)[O-])c4no[n+]([O-])c34)CC2)cc1
inactive: dose: 15.0 mg/kg/injection, schedule: Q04DX003 (ip), vehicle: saline with Tween-80 101 % of control | dose: 30.0 mg/kg/injection, schedule: Q04DX003 (ip), vehicle: saline with Tween-80 100 % of control | dose: 60.0 mg/kg/injection, schedule: Q04DX003 (ip), vehicle: saline with Tween-80 104 % of control

CCOC(=O)C1CC1C(=O)O (configuration not stated)
inactive: [5] 103 % of control | [6] 114 % of control

O=C(c1ccccc1)C(SSC(C(=O)c1ccccc1)C(=O)c1ccccc1)C(=O)c1ccccc1
inactive: [2] 100 % of control | [3] 112 % of control | [7] 103 % of control

C(CC1CO1)CC1OC1CC1CO1 (configuration not stated)
inactive: dose: 65.0 mg/kg/injection, schedule: Q04DX003 (ip), vehicle: saline 113 % of control | dose: 67.0 mg/kg/injection, schedule: Q04DX003 (ip), vehicle: saline with Tween-80 113 % of control | [1] 122 % of control | [5] 109 % of control
active: dose: 150.0 mg/kg/injection, schedule: Q04DX003 (ip), vehicle: saline with Tween-80 181 % of control | dose: 150.0 mg/kg/injection, schedule: Q04DX003 (ip), vehicle: saline 154 % of control | dose: 225.0 mg/kg/injection, schedule: Q04DX003 (ip), vehicle: saline with Tween-80 181 % of control

NC(=O)N(CCCl)N=O
inactive: dose: 4.0 mg/kg/injection, schedule: Q01DX010 (ip), vehicle: saline 90 % of control
118 % of control and 209 % of control: dose: 2.5 mg/kg/injection, schedule: Q01DX010 (ip), vehicle: saline
active: dose: 0.25 mg/kg/injection, schedule: Q01DX010 (ip), vehicle: saline 190 % of control | dose: 0.5 mg/kg/injection, schedule: Q01DX010 (ip), vehicle: saline 209 % of control and 213 % of control | dose: 1.0 mg/kg/injection, schedule: Q01DX010 (ip), vehicle: saline 290 % of control and 300 % of control | dose: 1.25 mg/kg/injection, schedule: Q01DX010 (ip), vehicle: saline 272 % of control and 168 % of control | dose: 2.0 mg/kg/injection, schedule: Q01DX010 (ip), vehicle: saline 277 % of control
